From PMC7504435, “Combined Protein- and Ligand-Observed NMR Workflow to Screen Fragment Cocktails against Multiple Proteins: A Case Study Using Bromodomains” (Molecules, 2020)
Where “and” joins values, the source holds several entries; their conditions need not be identical. Equal values may be shown once.

Assays:
PfGCN5 bromodomain [1] = target: T1, PfGCN5 bromodomain (Plasmodium falciparum, UniProt Q8IB67); test: biochemical; assay type: binding
Description: The screening workflow consists of two dependent steps: 1) a PrOF NMR screen of the 5FW-labeled proteins and a cocktail of 4–5 fragments in a single NMR tube; 2) a ^1H CPMG NMR binding assay to deconvolute the hit mixtures for each protein (Figure 1). In the first step, a dual-protein PrOF NMR spectrum was obtained in which 5FW-PfGCN5, 5FW-BPTF (~ 50 µM each) and mixtures of fragments (400 µM individual fragment) were present in the same NMR tube. […] Chemical shift perturbations indicating a ligand binding event were based on a prior cutoff of Δδ ≥ 0.030 ppm as the definition for a hit mixture. This cutoff was based on a statistical analysis of chemical shift perturbations from a prior BRD4 D1 fragment screen and are described further in the experimental section and in Table S2.
PrOF NMR. PrOF NMR spectra were obtained on a Bruker Avance III HD 500 with the 5 mm Prodigy TCI inverse cryoprobe (^19F S:N 2000:1). […] The DMSO concentration for all experiments was kept constant at 1%. […] For the PrOF NMR screen, 5FW-BPTF and 5FW-PfGCN5 (35–40 µM in 50 mM phosphate, 100 mM NaCl, pH 7.4) were tested with mixtures of 4–5 fragments, where each individual fragment was 400 µM. […] A 10 Hz line broadening was applied. Titrations were fit to Equation (2), where p is the protein concentration and L is the ligand concentration. (2) Δδ=Δδmax × (Kd+P+L ) − (((Kd + P + L )^2) − 4PL)/2P
A PrOF NMR binding event is characterized as a change in chemical shift (Δδ) from the protein-only spectrum to the protein + fragment mixture spectrum. We used a prior cutoff of Δδ ≥ 0.030 ppm as the definition of a hit mixture, based on a statistical analysis of chemical shift perturbations from a prior BRD4 D1 fragment screen.

PfGCN5 bromodomain [2] = target: T1, PfGCN5 bromodomain; test: 1H CPMG NMR deconvolution of hit mixtures, PfGCN5; assay type: binding; conditions: 10 µM protein, 100 µM ligand
Description: The second step is a ^1H CPMG NMR deconvolution of the hit mixtures using the non-fluorine-labeled bromodomains. ^1H CPMG NMR employs a T2 filter to take advantage of the difference in transverse relaxation time between protein and small molecules to filter out the bound-state ligand(s). Unlike the PrOF NMR assay, a single protein is assayed in each experiment. A binding event is characterized by a decrease in ligand resonance intensity from the ligand alone spectrum to the ligand + protein spectrum. A hit is defined as a decrease in resonance intensity ≥ 20%. The ^1H CPMG NMR assay can be tuned by changing the protein or ligand concentration, filter length (Figure 1), or hit criteria depending on how stringent the desired hit rate is. The number of ^1H CPMG NMR deconvolution experiments is directly informed from the first step. If a mixture from the first step was only a hit for one protein, a single ^1H CPMG NMR deconvolution experiment is needed. If a mixture from the first step was a hit for both proteins, two separate ^1H CPMG NMR deconvolutions experiments are needed to determine the fragments that bind to each protein.
^1H CPMG NMR. ^1H CPMG NMR screen data were acquired on Bruker Avance III HD 500 with the 5 mm Prodigy TCI cryoprobe inverse cryoprobe (^1H 2500:1 S/N). Competition ^1H CPMG NMR data were acquired on Bruker 700 MHz Avance with a CryoProbe 5 mm TXI (^1H S:N with H2O suppression (2mM sucrose) - 900:1) and excitation sculpting water suppression. Proteins were present at 10 µM in 50 mM phosphate, 100 mM NaCl, pH 7.4 in 100% D2O. In separate NMR tubes, a ^1H CPMG NMR pulse was applied to a 1) mixture of ligands (individual ligands present at 100 µM for the screen and 50 µM for competition experiments) and 2) ligands + protein. […] For the competition experiments, τ was increased to 4.0 ms.

T1 sequence (Q8IB67 entry or part of it): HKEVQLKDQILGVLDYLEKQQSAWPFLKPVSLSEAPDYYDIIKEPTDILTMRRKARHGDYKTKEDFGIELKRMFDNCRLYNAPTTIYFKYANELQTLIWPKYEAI

In the case of Nc1ccc2c(c1)N(C(=O)C1CC1)CCC2 [Fragment 9], the “ligand efficiency (LE)” value (PfGCN5 bromodomain [1]; PfGCN5, from Kd = 16 µM) is reported as 0.43, the Kd (PfGCN5 bromodomain [1]; PfGCN5 Kd, PrOF NMR titration, for 9 average of W1454 and W1379, NS = non-saturating) is reported as 17 µM and 16 µM and the “Initial Mixture PfGCN5 PrOF NMR Δδ” value (PfGCN5 bromodomain [1]; hit mixture containing the fragment, 400 µM each fragment) is reported as “++++ (++++ = Δδ > 0.2)”. The “selectivity, binds PfGCN5 over BPTF” value (PfGCN5 bromodomain [1]; ratio of Kd values) was 9 fold, the “PfGCN5 CPMG % decrease” value (PfGCN5 bromodomain [2]) was 100% and the “1H CPMG NMR % Drop in Resonance Intensity PfGCN5” value (PfGCN5 bromodomain [2]; for 9 from competition experiments (footnote a)) was “++++ ^a (++++ = 80–99.9%)”.
